Results: patent US20260327239A1, “COMPOUNDS FOR COVALENT INHIBITION OF SHP2” (Purdue Research Foundation, priority 2023, published 2026)
“Also recorded” adds a separate entry of the source. Read-outs that look alike come from different tables or passages of the source.

Tests used:
SHP2 (residues 224-528) = target: T1, SHP2 (residues 224-528) (Homo sapiens, UniProt Q06124); assay: Kinetic characterization of SHP2 inactivation (pNPP cleavage progress curves, kobs, kinact/KI); format: biochemical; details: for kinact/KI / KI (inactivation) / kinact: substrate pNPP 3 mM, 100 nM SHP2, pH 7.0, 25° C; for fold decrease in efficacy: comparator not given
T1 construct: 4× solution of SHP2 (residues 224-528)
T1 sequence (Q06124 224-528): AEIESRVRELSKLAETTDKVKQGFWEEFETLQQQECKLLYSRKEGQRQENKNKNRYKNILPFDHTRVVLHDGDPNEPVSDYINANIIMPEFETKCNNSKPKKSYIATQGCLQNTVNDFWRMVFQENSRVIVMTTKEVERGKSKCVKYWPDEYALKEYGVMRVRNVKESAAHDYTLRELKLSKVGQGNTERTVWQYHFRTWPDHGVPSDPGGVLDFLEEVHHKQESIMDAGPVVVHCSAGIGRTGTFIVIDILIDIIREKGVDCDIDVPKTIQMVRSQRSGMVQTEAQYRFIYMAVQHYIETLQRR
Description: Covalent inhibitors work by forming a covalent bond with a reactive functional group in the target enzyme. Consequently, the kinetics for enzyme inactivation by a covalent inhibitor is not an equilibrium process as with reversible inhibition. The potency of a reversible inhibitor can be measured by its IC50 value. Unlike reversible inhibitors, where inhibition is only concentration-dependent, covalent inhibitors show both time- and concentration-dependent target inhibition (a covalent bond formation is a time-dependent event). If sufficient time is available, covalent inhibitors can completely neutralize the target, rather than go to equilibrium. As a result, the potency and selectivity of a covalent inhibitor cannot be determined by IC50 values; instead, the rate of inactivation of the target (kinact) and the inhibition constant (KI) were determined. The bimolecular rate constant (kinact/KI), was chosen to rank the potency of covalent inhibitors (Ruddraraju et al., 2017, Molecular Biosystems 13(7), 1257-1279).
PTPs catalyze the dephosphorylation of tyrosine-phosphorylated protein substrates through a conserved mechanism that relies on a catalytic cysteine residue (Zhang, Z.-Y et al., 2003, Prog. Nucleic Acid Research Molecular Biology, 73, 171-220). This provides a mechanistic rationale for the assessment of electrophilic Michael acceptors, such as those synthesized in the present disclosure as potential covalent inhibitors of the SHP2. The enzymatic cleavage of para-nitrophenyl phosphate by SHP2 was measured over time in the presence of 100 μM inhibitor or DMSO, to determine the observed first-order rate constant (kobs). Based on kobs values, compounds were further evaluated in a dose-dependent manner to determine the second-order rate constant (kinact/KI) indicating the overall efficacy of the compounds, which was used to assess the structure-activity relationship (SAR) for the analogs of interest and design additional analogs (see Table 1). […] It has been known that modifications to the electronegativity of substituents proximal to electrophilic centers alter the reactivity of the electrophile.
The efficacy of covalent inhibitors can be broken down into the initial reversible binding of the compounds (KI), and the rate of covalent bond formation and enzyme inactivation (kinact). These two constants can be used individually, or as a ratio to determine the overall efficacy of the inhibitor's efficacy. To investigate the contribution to reversible binding compound (34) was evaluated, which lacks the carbonyl of the Michael acceptor to prevent the formation of a covalent adduct.
Inhibitors were evaluated for their ability to inhibit the reaction catalyzed by SHP2 using para-nitrophenyl phosphate (pNPP) as a substrate at pH 7 and 25° C. A 2× solution of inhibitor was diluted into DMG buffer (50 mM 3,3-dimethylglutarate pH 7.0, 1 mM EDTA, ionic strength adjusted to 150 mM using NaCl) was added to a clear flat-bottom 96-well plate (Corning Costar Assay Plate #9017), and serially diluted 1.5-fold, resulting in 100 μL volumes of varying inhibitor concentrations. To this was added a 4× solution of pNPP (12 mM) in DMG buffer. The reaction was initialized by the addition of a 4× solution of SHP2 (residues 224-528), resulting in a final solution of: inhibitor (100-0 μM), pNPP (3 mM), and SHP2 (100 nM). The plate was then monitored for a change in absorbance ab […] using a CLARIOstar^Plus plate reader (BMG Labetch) over the course of an hour. The resulting progress curves for each inhibitor were imported into Graphpad Prism 9 (GraphPad Software, San Diego, CA (USA)), and a baseline correction analysis was completed for fitting purposes. Each curve was fit to the equation Y=V0×(1−e^−kobs*t)/kobs.^[17.22] The kobs values were then plotted against inhibitor concentrations. If the resulting graph was linear, the kinact/KI value was determined by the slope of that line and the 95% confidence interval (95% CI). […]

SHP2 = target: T2, SHP2 (Homo sapiens, UniProt Q06124); assay: Covalent adduct formation on SHP2 by intact protein LC-MS; format: binding; details: 10 μM SHP2, 60 minutes; for Found Ligand Adduct (mass shift): intact protein LC-MS; for % SHP2 Reacted (overall adduct formation): PVSN at 20 μM, compound 37 at 10 μM
T2 construct: 4× solution of SHP2 (residues 224-528)
T2 sequence (Q06124 224-528): T1 sequence (Q06124 224-528)
Description: To validate covalent modification of SHP2 by the active compounds, adduct formation on SHP2 was measured by intact protein liquid chromatography-mass spectrometry (LC-MS). With intact protein LC-MS, multiply charged states of the protein species can be deconvoluted to achieve the total mass(es). Compounds were incubated with 10 μM SHP2 for 60 minutes before being quenched with acetonitrile for LC-MS analysis by electrospray ionization (ESI) in positive mode. […] (33), and (42) (FIGS. 3A and 3B).
To unfold protein and quench protein-ligand reactivity, 10 μL of treated or untreated 10 μM SHP2 was diluted in 40 μL of 80% (v/v) formic acid initially, followed by 150 μL of LC-MS buffer (50/50 water/acetonitrile with 0.1% formic acid). 20-25 pmol per sample was analyzed by LC/MS (Agilent 1260 Infinity II with a ZORBAX Rapid Resolution High Definition 300 Å Stable Bond C3, 2.1×100 mm, 1.8 μm column) attached to an Agilent 6129 quadrupole mass spectrometer in positive ion mode. The column was held at 45° C. Mobile solution A was 0.1% formic acid in water, and mobile phase B was 0.1% formic acid in acetonitrile. The gradient used was hold at 10% B for 5 min, increase linearly to 80% B for 15 min, and then hold at 80% B for 5 min. The mass data were collected at a range of 600-1500 m/z. Raw data were processed using MestReNova. For all samples, the deconvoluted mass was calculated by taking the m/z range of 730-1100 Da, and deconvoluted mass range from 36500-37200 Da. An abundance threshold of 10% and tolerance of 30 ppm was set for deconvolution. Unreacted SHP2's total deconvoluted mass was 36602±10 Da; for each deconvolution, the highest deconvoluted mass intensity was utilized as the mass pivot point to determine and identify reacted SHP2 adducts. To calculate the percent SHP2 reacted, the relative abundance intensity of reacted SHP2 was divided by the total relative abundance intensities of unreacted and reacted SHP2.

[1] = pH 7, role: inhibitor, read-out: kinact/KI (converted)

C=C1C(=O)[C@@]2(C(=O)NCCC)CC(=O)C[C@@H]1C2 [Compound 11]
kinact/KI (SHP2 (residues 224-528); [1]): 14.3 M⁻¹ s⁻¹
SHP2 inhibition efficacy (in words) (SHP2 (residues 224-528); role: inhibitor): slightly less potent than compound (10)
kinact/KI (SHP2 (residues 224-528); role: inhibitor): 865.8 M^−1Min^−1

C=C1C(=O)[C@@]2(C(=O)N(CC)CC)CC(=O)C[C@@H]1C2 [Compound 12]
kinact/KI (SHP2 (residues 224-528); [1]): 17.5 M⁻¹ s⁻¹
SHP2 inhibition efficacy (in words) (SHP2 (residues 224-528); role: inhibitor): more effective than compound (11) and the cyclic matched molecular pair (MMP) compound (17)

C=C1C(=O)[C@@]2(C(=O)N3CCCC3)CC(=O)C[C@@H]1C2 [Compound 17]
kinact/KI (SHP2 (residues 224-528); [1]): 13.4 M⁻¹ s⁻¹

C=C1C(=O)[C@@]2(C(=O)N3CCCCC3)CC(=O)C[C@@H]1C2 [Compound 19]
kinact/KI (SHP2 (residues 224-528); [1]): 19.4 M⁻¹ s⁻¹

C=C1C(=O)[C@@]2(C(=O)N3CCCCCC3)CC(=O)C[C@@H]1C2 [Compound 20]
kinact/KI (SHP2 (residues 224-528); [1]): 22.7 M⁻¹ s⁻¹

C=C1C(=O)[C@@]2(C(=O)N3CCOCC3)CC(=O)C[C@@H]1C2 [Compound 21]
kinact/KI (SHP2 (residues 224-528); [1]): 16 M⁻¹ s⁻¹
fold decrease in efficacy (SHP2 (residues 224-528); role: inhibitor): ~2 fold

C=C1C(=O)[C@@]2(C(=O)N3CC4(COC4)C3)CC(=O)C[C@@H]1C2 [Compound 22]
kinact/KI (SHP2 (residues 224-528); [1]): 12.9 M⁻¹ s⁻¹
fold decrease in efficacy (SHP2 (residues 224-528); role: inhibitor): ~2 fold

C=C1C(=O)[C@@]2(C(=O)N3CCC(F)(F)CC3)CC(=O)C[C@@H]1C2 [Compound 23]
kinact/KI (SHP2 (residues 224-528); [1]): 36.8 M⁻¹ s⁻¹
SHP2 inhibition efficacy (in words) (SHP2 (residues 224-528); role: inhibitor): more effective SHP2 inhibitor
kinact/KI (SHP2 (residues 224-528); role: inhibitor): 2,026.8 M^−1Min^−1

C=C1C(=O)[C@@]2(C(=O)N3CCN(C(=O)OC(C)(C)C)CC3)CC(=O)C[C@@H]1C2 [Compound 25]
kinact/KI (SHP2 (residues 224-528); [1]): 28.1 M⁻¹ s⁻¹
SHP2 inhibition efficacy (in words) (SHP2 (residues 224-528); role: inhibitor): able to inhibit the catalytic activity of SHP2

C=C1C(=O)[C@@]2(C(=O)N3CCN(C(C)=O)CC3)CC(=O)C[C@@H]1C2 [Compound 26]
kinact/KI (SHP2 (residues 224-528); [1]): 15.4 M⁻¹ s⁻¹
SHP2 inhibition efficacy (in words) (SHP2 (residues 224-528); role: inhibitor): able to inhibit the catalytic activity of SHP2

C=C1C(=O)[C@@]2(C(=O)N3CCN(c4ccccc4)CC3)CC(=O)C[C@@H]1C2 [Compound 30]
kinact/KI (SHP2 (residues 224-528); [1]): 39.6 M⁻¹ s⁻¹
SHP2 inhibition efficacy (in words) (SHP2 (residues 224-528); role: inhibitor): small improvement in efficacy

C=C1C(=O)[C@@]2(C(=O)N3CCN(c4ccccc4C#N)CC3)CC(=O)C[C@@H]1C2 [Compound 32]
kinact/KI (SHP2 (residues 224-528); [1]): 367 M⁻¹ s⁻¹
fold improvement in efficacy over the unsubstituted piperidine analog (19) (SHP2 (residues 224-528); role: inhibitor, kinact/KI relative to 19): approximately 19 fold
fold increase in efficacy relative to the unsubstituted phenyl ring (SHP2 (residues 224-528); role: inhibitor, kinact/KI relative to unsubstituted phenyl): 9.25 fold

C=C1C(=O)[C@@]2(C(=O)N3CCN(c4ccc(Br)cc4)CC3)CC(=O)C[C@@H]1C2 [Compound 33]
kinact/KI (SHP2 (residues 224-528); [1]): 367 M⁻¹ s⁻¹
KI (inactivation) (SHP2 (residues 224-528); role: inhibitor): 69.7 µM
kinact (SHP2 (residues 224-528); role: inhibitor): 0.0219 s⁻¹
Found Ligand Adduct (mass shift) (SHP2): 412 Da
% SHP2 Reacted (overall adduct formation) (SHP2): 30%

C=C1CC2(C(=O)N3CCN(c4ccc(Br)cc4)CC3)CC(=O)CC1C2 (stereo not drawn) [Compound 34]
SHP2 inhibition efficacy (in words) (SHP2 (residues 224-528); role: inhibitor): complete loss of SHP2 inhibition efficacy; also recorded: inactive against SHP2; also recorded: complete loss of activity

C=C1C(=O)[C@@]2(C(=O)N3CCN(c4ccc(F)cc4)CC3)CC(=O)C[C@@H]1C2 [Compound 35]
kinact/KI (SHP2 (residues 224-528); [1]): 97.6 M⁻¹ s⁻¹
KI (inactivation) (SHP2 (residues 224-528); role: inhibitor): 112 µM
kinact (SHP2 (residues 224-528); role: inhibitor): 0.0109 s⁻¹

C=C1C(=O)[C@@]2(C(=O)N3CCN(c4ccc(Cl)cc4)CC3)CC(=O)C[C@@H]1C2 [Compound 36]
kinact/KI (SHP2 (residues 224-528); [1]): 220 M⁻¹ s⁻¹

C=C1C(=O)[C@@]2(C(=O)N3CCN(c4ccc(C)cc4)CC3)CC(=O)C[C@@H]1C2 [Compound 38]
kinact/KI (SHP2 (residues 224-528); [1]): 101 M⁻¹ s⁻¹
KI (inactivation) (SHP2 (residues 224-528); role: inhibitor): 176 µM
kinact (SHP2 (residues 224-528); role: inhibitor): 0.0172 s⁻¹

C=C1C(=O)[C@@]2(C(=O)N3CCN(c4ccc(OC)cc4)CC3)CC(=O)C[C@@H]1C2 [Compound 39]
kinact/KI (SHP2 (residues 224-528); [1]): 46.5 M⁻¹ s⁻¹

C=C1C(=O)[C@@]2(C(=O)N3CCN(c4ccc(C(C)(C)C)cc4)CC3)CC(=O)C[C@@H]1C2 [Compound 40]
kinact/KI (SHP2 (residues 224-528); [1]): 291 M⁻¹ s⁻¹

C=C1C(=O)[C@@]2(C(=O)N3CCN(c4ccc(-c5ccccc5)cc4)CC3)CC(=O)C[C@@H]1C2 [Compound 41]
kinact/KI (SHP2 (residues 224-528); [1]): 311 M⁻¹ s⁻¹
KI (inactivation) (SHP2 (residues 224-528); role: inhibitor): 10.2 µM
kinact (SHP2 (residues 224-528); role: inhibitor): 0.00317 s⁻¹

C=C1C(=O)[C@@]2(C(=O)N3CCN(c4ccc(C(F)(F)F)cc4)CC3)CC(=O)C[C@@H]1C2 [Compound 42]
kinact/KI (SHP2 (residues 224-528); [1]): 417 M⁻¹ s⁻¹
fold increase in efficacy over compound 11 (SHP2 (residues 224-528); role: inhibitor, kinact/KI relative to 11): 29 fold
fold increase in efficacy compared to PVSN (SHP2 (residues 224-528); role: inhibitor, kinact/KI relative to PVSN): 119 fold
KI (inactivation) (SHP2 (residues 224-528); role: inhibitor): 47.8 µM
kinact (SHP2 (residues 224-528); role: inhibitor): 0.0199 s⁻¹
Found Ligand Adduct (mass shift) (SHP2): 410 Da
% SHP2 Reacted (overall adduct formation) (SHP2): 43%

C=CS(=O)(=O)Oc1ccccc1 [PVSN, phenyl vinyl sulfonate, reference compound]
kinact/KI (SHP2 (residues 224-528); [1]): 3.52 M⁻¹ s⁻¹
% SHP2 Reacted (overall adduct formation) (SHP2): 21%
